Assay results as given in patent publication US10131652B2, “Pyrimidinyloxy benzene derivatives as herbicides” (E. I. DU PONT DE NEMOURS AND COMPANY, priority 2014, dated 2018).

Columns and labels:
Format in all cases: in vivo
[1] = system: barnyardgrass (Echinochloa crus-galli); experiment: Test B pre-/postemergence plant response; settings: for Barnyardgrass plant response rating: 0 to 100 scale (0 no effect, 100 complete control)
Method in brief: (§1)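 Visual injury rating, 0 (no effect) to 100 (complete control), vs untreated controls after ~10 d greenhouse. Pre: directed soil spray after planting in loam/sand. Post: plants 2–10 cm, 1–2 leaf stage. Compound in non-phytotoxic solvent plus surfactant.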

corn (Zea mays) = experiment: Test B pre-/postemergence plant response; settings: for Corn plant response rating: 0 to 100 scale (0 no effect, 100 complete control)
Method in brief: as §1

[2] = system: giant foxtail (Setaria faberii); experiment: Test B pre-/postemergence plant response; settings: for Foxtail, Giant plant response rating: 0 to 100 scale (0 no effect, 100 complete control)
Method in brief: as §1

[3] = system: large (Lg) crabgrass (Digitaria sanguinalis); experiment: Test B pre-/postemergence plant response; settings: for Crabgrass, Large plant response rating: 0 to 100 scale (0 no effect, 100 complete control)
Method in brief: as §1

[4] = system: morningglory (Ipomoea spp.); experiment: Test B pre-/postemergence plant response; settings: for Morningglory plant response rating: 0 to 100 scale (0 no effect, 100 complete control)
Method in brief: as §1

[5] = system: pigweed (Amaranthus retroflexus); experiment: Test B pre-/postemergence plant response; settings: for Pigweed plant response rating: 0 to 100 scale (0 no effect, 100 complete control)
Method in brief: as §1

[6] = system: velvetleaf (Abutilon theophrasti); experiment: Test B pre-/postemergence plant response; settings: for Velvetleaf plant response rating: 0 to 100 scale (0 no effect, 100 complete control)
Method in brief: as §1

[7] = system: wheat (Triticum aestivum); experiment: Test B pre-/postemergence plant response; settings: for Wheat plant response rating: 0 to 100 scale (0 no effect, 100 complete control)
Method in brief: as §1

[8] = system: barnyardgrass (Echinochloa crus-galli); experiment: Test C flooded paddy test plant response; settings: Flood, 250 g ai/ha; scale of 0 to 100 where 0 is no effect and 100 is complete control; 13 to 15 days
Method in brief: (§2)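 Plants grown to 2-leaf stage, flooded 3 cm above soil; compounds applied directly into paddy water, depth kept throughout. Visual rating versus controls after 13 to 15 days in greenhouse, 0 (no effect) to 100 (complete control).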

[9] = system: ducksalad (Heteranthera limosa); experiment: Test C flooded paddy test plant response; settings: Flood, 250 g ai/ha; scale of 0 to 100 where 0 is no effect and 100 is complete control; 13 to 15 days
Method in brief: as §2

rice (Oryza sativa) = experiment: Test C flooded paddy test plant response; settings: Flood, 250 g ai/ha; scale of 0 to 100 where 0 is no effect and 100 is complete control; 13 to 15 days
Method in brief: as §2

[10] = system: small-flower umbrella sedge (Cyperus difformis); experiment: Test C flooded paddy test plant response; settings: Flood, 250 g ai/ha; scale of 0 to 100 where 0 is no effect and 100 is complete control; 13 to 15 days
Method in brief: as §2

[11] = 125 g ai/ha, postemergence, 0 to 100 scale, 0 no effect, 100 complete control
[12] = 500 g ai/ha, postemergence, 0 to 100 scale, 0 no effect, 100 complete control
[13] = Preemergence, 500 g ai/ha, 0 to 100 scale where 0 is no effect and 100 is complete control

Compound | Plant response rating, Barnyardgrass [1, 11] | Plant response rating, Barnyardgrass [1, 12] | Barnyardgrass plant response rating ([1]; Preemergence, 125 g ai/ha) | Plant response rating, Barnyardgrass [1, 13] | Plant response rating, Corn (corn (Zea mays); [11]) | Plant response rating, Corn (corn (Zea mays); [12]) | Corn plant response rating (corn (Zea mays); Preemergence, 125 g ai/ha) | Plant response rating, Corn (corn (Zea mays); [13]) | Plant response rating, Foxtail, Giant [2, 11] | Plant response rating, Foxtail, Giant [2, 12] | Foxtail, Giant plant response rating ([2]; Preemergence, 125 g ai/ha) | Plant response rating, Foxtail, Giant [2, 13] | Plant response rating, Crabgrass, Large [3, 11] | Plant response rating, Crabgrass, Large [3, 12] | Crabgrass, Large plant response rating ([3]; Preemergence, 125 g ai/ha) | Plant response rating, Crabgrass, Large [3, 13] | Plant response rating, Morningglory [4, 11] | Plant response rating, Morningglory [4, 12] | Morningglory plant response rating ([4]; Preemergence, 125 g ai/ha) | Plant response rating, Morningglory [4, 13] | other results
Clc1ccc(-c2ccc(Br)cc2Oc2ncc(Cl)cn2)nc1 [Compound 203] | 0 | 0 | 0 | 0 | 0 | 0 | 0 | 0 | 0 | 0 | 0 | 0 | 0 | 0 | 0 | 0 | 0 | 0 | 0 | 0 | Plant response rating, Pigweed [5, 11]: 0; Plant response rating, Pigweed [5, 12]: 0; Pigweed plant response rating ([5]; Preemergence, 125 g ai/ha): 0; Plant response rating, Pigweed [5, 13]: 0; Plant response rating, Velvetleaf [6, 11]: 0; Plant response rating, Velvetleaf [6, 12]: 0; Velvetleaf plant response rating ([6]; Preemergence, 125 g ai/ha): 0; Plant response rating, Velvetleaf [6, 13]: 0; Plant response rating, Wheat [7, 11]: 0; Plant response rating, Wheat [7, 12]: 0; Wheat plant response rating ([7]; Preemergence, 125 g ai/ha): 0; Plant response rating, Wheat [7, 13]: 0; Barnyardgrass plant response rating [8]: 0; Ducksalad plant response rating [9]: 0; Rice plant response rating (rice (Oryza sativa)): 0; Sedge, Umbrella plant response rating [10]: 0
N#Cc1cccc(Oc2ncc(Br)cn2)c1-c1ccc(Cl)cn1 [Compound 204] | 0 | 10 | 0 | 30 | 0 | 0 | 0 | 0 | 0 | 30 | 60 | 100 | 10 | 40 | 90 | 100 | 0 | 10 | 0 | 10 | Plant response rating, Pigweed [5, 11]: 50; Plant response rating, Pigweed [5, 12]: 90; Pigweed plant response rating ([5]; Preemergence, 125 g ai/ha): 100; Plant response rating, Pigweed [5, 13]: 100; Plant response rating, Velvetleaf [6, 11]: 0; Plant response rating, Velvetleaf [6, 12]: 10; Velvetleaf plant response rating ([6]; Preemergence, 125 g ai/ha): 0; Plant response rating, Velvetleaf [6, 13]: 60; Plant response rating, Wheat [7, 11]: 0; Plant response rating, Wheat [7, 12]: 0; Wheat plant response rating ([7]; Preemergence, 125 g ai/ha): 0; Plant response rating, Wheat [7, 13]: 0; Barnyardgrass plant response rating [8]: 0; Ducksalad plant response rating [9]: 0; Rice plant response rating (rice (Oryza sativa)): 0; Sedge, Umbrella plant response rating [10]: 0
Clc1ccc(-c2c(I)cccc2Oc2ncc(Cl)cn2)nc1 [Compound 205] | 0 | 10 | 0 | 10 | 0 | 10 | 0 | 0 | 0 | 20 | 20 | 70 | 10 | 20 | 30 | 70 | 0 | 10 | 0 | 0 | Plant response rating, Pigweed [5, 11]: 60; Plant response rating, Pigweed [5, 12]: 90; Pigweed plant response rating ([5]; Preemergence, 125 g ai/ha): 10; Plant response rating, Pigweed [5, 13]: 90; Plant response rating, Velvetleaf [6, 11]: 0; Plant response rating, Velvetleaf [6, 12]: 10; Velvetleaf plant response rating ([6]; Preemergence, 125 g ai/ha): 0; Plant response rating, Velvetleaf [6, 13]: 0; Plant response rating, Wheat [7, 11]: 0; Plant response rating, Wheat [7, 12]: 0; Wheat plant response rating ([7]; Preemergence, 125 g ai/ha): 0; Plant response rating, Wheat [7, 13]: 0; Barnyardgrass plant response rating [8]: 0; Ducksalad plant response rating [9]: 0; Rice plant response rating (rice (Oryza sativa)): 0; Sedge, Umbrella plant response rating [10]: 0
Fc1cnc(Oc2ccccc2-c2cc(C(F)(F)F)on2)nc1 [Compound 206] | 0 | 10 | 0 | 30 | 0 | 0 | 0 | 0 | 0 | 20 | 10 | 60 | 10 | 20 | 10 | 60 | 20 | 30 | 0 | 0 | Plant response rating, Pigweed [5, 11]: 40; Plant response rating, Pigweed [5, 12]: 70; Pigweed plant response rating ([5]; Preemergence, 125 g ai/ha): 50; Plant response rating, Pigweed [5, 13]: 80; Plant response rating, Velvetleaf [6, 11]: 30; Plant response rating, Velvetleaf [6, 12]: 60; Velvetleaf plant response rating ([6]; Preemergence, 125 g ai/ha): 30; Plant response rating, Velvetleaf [6, 13]: 40; Plant response rating, Wheat [7, 11]: 0; Plant response rating, Wheat [7, 12]: 0; Wheat plant response rating ([7]; Preemergence, 125 g ai/ha): 0; Plant response rating, Wheat [7, 13]: 0; Barnyardgrass plant response rating [8]: 0; Ducksalad plant response rating [9]: 70; Rice plant response rating (rice (Oryza sativa)): 0; Sedge, Umbrella plant response rating [10]: 70
